These results are taken from PMC7961786, “Magic Peptide: Unique Properties of the LRR11 Peptide in the Activation of Leukotriene Synthesis in Human Neutrophils” (International Journal of Molecular Sciences, 2021).

The subject of one series is 5′-biotinylated C-CpG. In words: TSM acoustic biosensor, peptide binding to immobilized C-CpG. An excerpt:
To characterize the interaction of the studied synthetic ODNs with the LRR11 peptide, we applied the thickness shear mode (TSM) acoustic biosensor method, which is based on the investigation of ultrasonic waves in piezoelectric materials such as AT-cut quartz. This approach involved immobilizing a 5′-biotinylated ODN on the surface of TSM transducer covered by NeutrAvidin and then adding the LRR11 peptide. An unrelated peptide (URP) with a random primary structure ([…]) was used as a negative control. The measurement procedure was divided into several steps, in which each immobilization stage was followed by washing with an appropriate buffer solution; when peptide solutions at different concentrations (from 1 to 100 nM) were added to the surface-modified TSM transducer, a wash with Hanks buffer was used before increasing the peptide concentration.
Based on Langmuir isotherm Equation (1), (1) Δfcc=Δfsmaxc/KD+c where Δfs(c) is the frequency change at a certain peptide concentration under equilibrium conditions, (Δfs)max is the maximum frequency change, c is the peptide concentration, and KD is the equilibrium constant of dissociation, we estimated the (Δfs)max and KD values for binding of the LRR11 peptide to C-CpG and B-CpG (Table 3).
Using Sauerbrey’s Equation (2), (2) Δf=−2f02Δm/Aμqρq where f0 is the fundamental resonance frequency (in our case 8 MHz), Δm is the change in mass (in grams) of the adsorbed layer on the crystal surface, A is the effective crystal area (in our case 0.2 cm^2), μq = 2.947 × 10^11 g × cm^−1s^−2 is the shear modulus of elasticity, and ρq = 2.648 g × cm^−3 is the crystal density, surface concentrations of NeutrAvidin, ODN and LRR11 peptide were estimated based on changes of resonance frequency (Figure 4). According to Equation (2), the surface density of molecules, σ (in molecules/cm^2), can be calculated as σ = ΔmNA/(A × Mw), where NA is Avogadro’s number (=6.023 × 10^23 mol^−1), and Mw represents the molecular weight of the corresponding compound (NeutrAvidin: 65 kDa, 5′-biotinylated C-CpG: 7115.4 Da, and LRR11: 3421 Da). Based on this approach, we obtained the following surface concentration values: 1.94 × 10^13 cm^−2 for NeutrAvidin, 3.37 × 10^13 cm^−2 for C-CpG and 2.4 × 10^13 cm^−2 for LRR11. The NeutrAvidin has four binding sites, two of which are available for biotinylated ODN binding. This is due to the fact that the other two sites are inaccessible due to NeutrAvidin chemisorption on the TSM surface. Thus, the number of available binding sites for the ODN is 3.88 × 10^13 cm^−2. […] Therefore, the surface of the TSM transducer is practically completely saturated by C-CpG. Estimation of the surface concentration of LRR11 evidences that at 50 nM concentration of this peptide, it occupies almost 70.6% of the ODN molecules. […]

Series [1] deals with human neutrophils, 5-LOX metabolites. In words: 5-LOX metabolite production in neutrophils without bacteria or other phagocytosis targets. It counts as cell-based. To be noted: in the absence of bacteria or other targets for phagocytosis. On the procedure: Human neutrophils synthesize 5-LOX metabolites (leukotriene B4 (LTB4) and its isomers, ω-OH-LTB4 and 5-HETE), during phagocytosis of opsonized zymosan or S. typhimurium bacteria. In the absence of bacteria or other targets for phagocytosis, treatment of neutrophils with ODNs listed in Table 1 or with LRR11, produce less than 1 ng of LTB4, its isomers, ω-OH-LTB4, and 5-HETE per 10^7 PMNLs. The potential of the LRR11 peptide and ODNs to regulate the synthesis of products catalyzed by 5-LOX was assessed after cell incubation with ODNs (+/−LRR11) followed by the addition of opsonized S. typhimurium bacteria (OS). To test whether neutrophil incubation with ODNs, LRR11 and bacteria affects cell viability, we assessed phosphatidylserine externalization and the integrity of neutrophil membranes after 20 min with ODNs (+/−LRR11) followed by 15 min with OS at 37 °C. The data obtained by flow cytometry using double Alexa Fluor-conjugated Annexin V/propidium iodide staining indicate that in our experiment the percentage of viable cells exceeds 96% (Figure S1).
Human neutrophils were isolated from freshly taken citrate-anticoagulated peripheral blood from healthy individuals using standard methods. Leukocyte-rich plasma was prepared by sedimentation of erythrocytes with 3% dextran T-500 at room temperature. […]

“5′-tcgtcgttttcggcgcgcgccg-3′ (DNA TCGTCGTTTTCGGCGCGCGCCG; chemistry not fully specified) [C-CpG]”: in the series on 5′-biotinylated C-CpG (LRR11-C-CpG complex, KA = 1/KD), the KA amounted to 0.017 ± 0.007 nM⁻¹. In the series on 5′-biotinylated C-CpG (LRR11 to immobilized C-CpG, Langmuir fit, Hanks buffer, room temperature, LRR11 1-100 nM, three independent experiments), the “−(Δfs)max” value was found to be 33.9 ± 6.4 Hz.

“QLRKLNLSFNYQKRVSFAHLSLAPSFGSLV [LRR11, 30 amino acid peptide from leucine-rich repeat of TLR9]”: the “change of ∆fs at low LRR11 concentrations” value in the series on 5′-biotinylated C-CpG (1, 5, 10 nM LRR11, C-CpG) is on record as “not significant or small changes of ∆fs”. In series [1], the “LTB4, its isomers, ω-OH-LTB4, and 5-HETE produced” value is recorded as “less than 1 ng per 10^7 PMNLs”.
